Experimental data taken from PMC5007466, “VCP recruitment to mitochondria causes mitophagy impairment and neurodegeneration in models of Huntington's disease” (Nature Communications, 2016).
Peptide text beside a SMILES is read from it. * marks the point of attachment. Cbz = O=C(OCc1ccccc1)*

Tests used:
[1] = tested on: HdhQ111 mouse striatal cells; assay: Mitochondria-associated LC3 II level; type: cell-based; details: VCP siRNA, 48 h
Description: (§1) For silencing Htt and VCP in HD striatal cells, control siRNA, mouse Htt and mouse VCP siRNA were purchased from Thermo Fisher Scientific. HdhQ7 and HdhQ111 cells were transfected either with control siRNA, or Htt or VCP siRNA using TransIT-TKO Transfection Reagent (Mirus Bio, LLC), according to the manufacturer's instructions. The sequences for the siRNAs used in this study are as follows: mouse Htt, 5′-[…]-3′; Mouse VCP, 5′-GAGAGCAACCUUCGUAAG-3′; control non-targeting siRNA, 5′-TTCTCCGAACGTGTCACGT-3′.
Cells were washed with cold PBS and incubated on ice for 30 min in a lysis buffer (250 mM sucrose, 20 mM HEPES-NaOH, pH 7.5, 10 mM KCl, 1.5 mM MgCl2, 1 mM EDTA, protease inhibitor cocktail and phosphatase inhibitor cocktail). Mouse brains were minced and homogenized in the lysis buffer and then placed on ice for 30 min. Collected cells or tissue were disrupted 20 times by repeated aspiration through a 25-gauge needle, followed by a 30-gauge needle. The homogenates were spun at 800 g for 10 min at 4 °C, and the resulting supernatants were spun at 10,000 g for 20 min at 4 °C. The pellets were washed with lysis buffer and spun at 10,000 g again for 20 min at 4 °C. The final pellets were suspended in lysis buffer containing 1% Triton X-100 and were mitochondrial-rich lysate fractions. […]
(§2) Protein concentrations were determined by Bradford assay. […]

[2] = tested on: HdhQ111 / HdhQ7 mouse striatal cells; assay: Mitochondrial membrane potential (TMRM), mouse striatal cells; type: cell-based; details: HdhQ111 cells, VCP siRNA, three days
Description: (§3) Immortalized striatal cell lines HdhQ111 mutant and HdhQ7 wt cells were obtained from the CHDI Foundation. Cells were cultured in DMEM supplemented with 10% FBS, 100 μg/ml penicillin, 100 μg ml^−1 streptomycin, and 400 μg ml^−1 G418. Cells were grown at 33 °C in a 5% CO2 incubator. Cells within 14 passages were used in all experiments.
as §1
To determine mitochondrial mass in cultures, cells were stained with antibodies against Tom20 or stained with Mitotracker green. The fluorescent density of Tom20 (1:500) or mitotracker green was quantitated using NIH Image J software. To measure the membrane potential of mitochondria in cultures, cells were incubated with 0.25 μM tetra-methyl rhodamine (Invitrogen Life Science) for 20 min at 37 °C. To determine lysosomal activity, cells were incubated with Lyso-ID Red dye (Enzo Life Science) for 30 min at 37 °C. The images were visualized by microscope and quantitation of the density of red fluorescence was carried out using NIH ImageJ software. For immunocytochemistry study, at least 100 cells per group were counted and quantitated by an observer blind to experimental conditions.

[3] = tested on: Htt or mtHtt protein in HdhQ7 and HdhQ111 cells; assay: Htt/mtHtt protein level (western blot); type: cell-based, mouse; details: 16 h, n = 3
Description: Protein concentrations were determined by Bradford assay. Protein was resuspended in Laemmli buffer, loaded on SDS–PAGE, and transferred onto nitrocellulose membranes. Membranes were probed with the indicated antibodies, followed by visualization with ECL. Representative blots have been cropped for presentation. Images of full-size blots are presented in Supplementary Fig. 9.
Supplementary Figure 3: Htt and mtHtt are not substrates of VCP . Left: HdhQ7 and HdhQ111 cells were treated with MG132 (10 µM for 16 hours). Protein levels of Htt were determined in the total lysates of the cells. Actin was used as a loading control. The representative blots were from three independent experiments. Right: HdhQ7 and HdhQ111 were treated with Eer I (Eeyarestatin I, 5μ M for 16 hours). Protein levels of Htt were determined. Mcl-1, a mitochondrial Bcl-2 family protein, was used as a positive control. Mcl-1 has been reported to be a substrate of VCP on mitochondria and it is degraded via the ubiquitin-proteasome system. The representative blots were from three independent […]
(1 picture or pasted object on this page, not shown here)

[4] = tested on: VCP; details: cited from earlier work
Description: We next ask what specific function VCP mediates on mitochondria from HD models. VCP knock-out is lethal in mice[34].

[5] = tested on: HdhQ111 / HdhQ7 mouse striatal cells; assay: VCP mitochondrial level, mouse striatal cells (western blot); type: cell-based; details: HdhQ111 cells, Htt siRNA, 3 days
Description: as §3, §1
Cells were washed with cold PBS and incubated on ice for 30 min in a lysis buffer (250 mM sucrose, 20 mM HEPES-NaOH, pH 7.5, 10 mM KCl, 1.5 mM MgCl2, 1 mM EDTA, protease inhibitor cocktail and phosphatase inhibitor cocktail). Mouse brains were minced and homogenized in the lysis buffer and then placed on ice for 30 min. Collected cells or tissue were disrupted 20 times by repeated aspiration through a 25-gauge needle, followed by a 30-gauge needle. The homogenates were spun at 800 g for 10 min at 4 °C, and the resulting supernatants were spun at 10,000 g for 20 min at 4 °C. The pellets were washed with lysis buffer and spun at 10,000 g again for 20 min at 4 °C. The final pellets were suspended in lysis buffer containing 1% Triton X-100 and were mitochondrial-rich lysate fractions. The supernatant was centrifuged at 100,000 g, 4 °C, for 1 h, the pellets were suspended in lysis buffer containing 1% Triton X-100 as ER fractions. The final supernatant was cytosolic fractions. The mitochondrial proteins VDAC, the ER protein WFS1 and the cytosolic protein Enolase were used as loading controls for mitochondrial, ER and cytosolic fractions, respectively.
as §2

With “5′-GAGAGCAACCUUCGUAAG-3′ [VCP siRNA, reference compound]” the “mitochondria-associated LC3 II” value [1] was “reduced the levels of mitochondria-associated LC3 II” and the mitochondrial membrane potential [2] was “similarly promoted the MMP”.

With `CC(C)C[C@@H](C=O)NC(=O)[C@H](CC(C)C)NC(=O)[C@H](CC(C)C)NC(=O)OCc1ccccc1` [MG132] (Cbz-Leu-Leu-Leu-aldehyde) the “Htt or mtHtt protein levels” value ([3]; MG132 10 µM) was “did not affect Htt or mtHtt protein levels”.

For `CC1(C)C(N(O)C(=O)Nc2ccc(Cl)cc2)N(c2ccc(Cl)cc2)C(=O)N1CC(=O)N/N=C/C=C/c1ccc([N+](=O)[O-])o1` (stereo not drawn) [Eeyarestatin I], the cell death [4] is given as “rapidly lead to cell death”, the specificity [4] is given as “non-specific” and the “Htt or mtHtt protein levels” value ([3]; Eeyarestatin I 5 μM) is given as “did not affect Htt or mtHtt protein levels”.

In the case of “5′-GGUUUAUGAACUGACUUUGTT-3′ [Htt siRNA, reference compound]”, the “VCP translocation to mitochondria” value [5] is reported as “abolished VCP translocation to mitochondria”.

In the case of `c1ccc(CNc2nc(NCc3ccccc3)c3ccccc3n2)cc1` [N2,N4-dibenzylquinazoline-2,4-diamine], the cell death [4] is listed as “rapidly lead to cell death” and the specificity [4] is listed as “non-specific”.
